Experimental data published in US20240158446A1, “CYCLIC COMPOUND HAVING SELECTIVE INHIBITORY ACTION ON KRAS OVER HRAS AND NRAS” (CHUGAI SEIYAKU KABUSHIKI KAISHA, priority 2021, published 2024).
Like-named read-outs stand apart in the source and are kept apart here. Where a SMILES comes first, the peptide text is derived from it. Bridges are numbered along the chain shown (N, C = ends). [ ]: non-standard residue; d: D form. The star is where a group is joined. hPhe(3,5-F2-4-CF3) = N[C@@H](CCc1cc(F)c(C(F)(F)F)c(F)c1)C(=O)O; hPhe(3-Cl-4-CF3) = N[C@@H](CCc1ccc(C(F)(F)F)c(Cl)c1)C(=O)O; NPrPhe(4-CF3) = CCCN[C@@H](Cc1ccc(C(F)(F)F)cc1)C(=O)O; NPrPhe(4-Me) = CCCN[C@@H](Cc1ccc(C)cc1)C(=O)O; NMeGly(cPent) = CN[C@H](C(=O)O)C1CCCC1; Pro(4,4-F2) = O=C(O)[C@@H]1CC(F)(F)CN1; Hyp = O=C(O)[C@@H]1C[C@@H](O)CN1; NMeD = CN[C@@H](CC(=O)O)C(=O)O; NMeL = CN[C@@H](CC(C)C)C(=O)O; Iva = CC[C@](C)(N)C(=O)O; Morpholide = C1CN(*)CCO1; Ac5c = NC1(C(=O)O)CCCC1; Aze = O=C(O)[C@@H]1CCN1; Ac4c = NC1(C(=O)O)CCC1; NEtG = CCNCC(=O)O; Sar = CNCC(=O)O

Key:
[1] = molecular target: GDP-bound KRAS wild-type protein (Homo sapiens, UniProt P01116); assay: Binding to KRAS by surface plasmon resonance (SPR), Single Cycle Kinetics; conditions: GDP-bound KRAS wild-type protein, read-out: KRAS KD
Chain of GDP-bound KRAS wild-type protein (P01116 whole entry): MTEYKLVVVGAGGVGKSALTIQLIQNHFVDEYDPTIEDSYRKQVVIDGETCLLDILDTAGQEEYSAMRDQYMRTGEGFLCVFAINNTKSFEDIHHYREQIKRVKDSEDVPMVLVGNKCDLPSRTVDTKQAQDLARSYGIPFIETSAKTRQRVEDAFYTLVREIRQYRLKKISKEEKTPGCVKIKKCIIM

[2] = molecular target: GDP-bound NRAS wild-type protein (Homo sapiens, UniProt P01111); assay: Binding to NRAS by surface plasmon resonance (SPR), Single Cycle Kinetics; conditions: for NRAS/KRAS (ratio of KD value with respect to GDP-bound NRAS wild-type protein to KD value with respect to KRAS): SPR KD ratio NRAS/KRAS, class symbols; for NRAS/KRAS (ratio of KD value for NRAS to KD value for KRAS) / NRAS/KRAS (ratio of KD value with respect to NRAS to KD value with respect to KRAS): SPR, GDP-bound NRAS wild-type protein vs GDP-bound KRAS wild-type protein
Chain of GDP-bound NRAS wild-type protein (P01111 whole entry): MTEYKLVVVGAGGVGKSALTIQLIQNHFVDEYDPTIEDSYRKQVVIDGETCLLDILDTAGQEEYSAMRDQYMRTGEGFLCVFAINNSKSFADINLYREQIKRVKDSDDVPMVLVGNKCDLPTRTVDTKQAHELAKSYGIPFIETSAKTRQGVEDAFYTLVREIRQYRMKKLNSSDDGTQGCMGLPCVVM

[3] = molecular target: GDP-bound HRAS wild-type protein (Homo sapiens, UniProt P01112); assay: Binding to HRAS by surface plasmon resonance (SPR), Single Cycle Kinetics; conditions: for HRAS/KRAS (ratio of KD value with respect to GDP-bound HRAS wild-type protein to KD value with respect to KRAS): SPR KD ratio HRAS/KRAS, class symbols; for HRAS/KRAS (ratio of KD value for HRAS to KD value for KRAS) / HRAS/KRAS (ratio of KD value with respect to HRAS to KD value with respect to KRAS): SPR, GDP-bound HRAS wild-type protein vs GDP-bound KRAS wild-type protein
Chain of GDP-bound HRAS wild-type protein (P01112 whole entry): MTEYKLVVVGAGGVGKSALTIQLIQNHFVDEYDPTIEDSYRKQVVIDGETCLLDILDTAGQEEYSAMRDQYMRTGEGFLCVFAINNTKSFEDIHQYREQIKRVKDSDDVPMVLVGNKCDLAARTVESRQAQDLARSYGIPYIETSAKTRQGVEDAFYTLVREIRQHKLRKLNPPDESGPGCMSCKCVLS

[4] = SPR Single Cycle Kinetics, 1:1 binding model

Kd [1, 4] [nM]	Kd ([1]; SPR, Single Cycle Kinetics) [nM]	SMILES	NRAS/KRAS (ratio of KD value with respect to GDP-bound NRAS wild-type protein to KD value with respect to KRAS) [2]	HRAS/KRAS (ratio of KD value with respect to GDP-bound HRAS wild-type protein to KD value with respect to KRAS) [3]	NRAS/KRAS (ratio of KD value for NRAS to KD value for KRAS) [2]	HRAS/KRAS (ratio of KD value for HRAS to KD value for KRAS) [3]	NRAS/KRAS (ratio of KD value with respect to NRAS to KD value with respect to KRAS) [2]	HRAS/KRAS (ratio of KD value with respect to HRAS to KD value with respect to KRAS) [3]
	0.18	CCO[C@@H]1C[C@H]2C(=O)NC3(CCC3)C(=O)N(C)[C@@H](C3CCCC3)C(=O)N(C)[C@H](C)CC(=O)N(C)[C@@H](CC)C(=O)N[C@@H]([C@@H](C)CC)C(=O)N(C)CC(=O)N(C)[C@H]3C/C=C\CCN(C3=O)[C@@H](Cc3ccc(C(F)(F)F)cc3)C(=O)N(C)CC(=O)N[C@@H](CCc3cc(F)c(C(F)(F)F)c(F)c3)C(=O)N2C1 [PP1095]			B (a compound having 3 or more and less than 10 is denoted as B)	B (a compound having 3 or more and less than 10 is denoted as B)		
	0.098	CCO[C@@H]1C[C@H]2C(=O)NC3(CCC3)C(=O)N(C)[C@@H](C3CCCC3)C(=O)N(C)[C@H](C(=O)N(C)C)CC(=O)N(C)[C@@H](CC)C(=O)N[C@@H]([C@@H](C)CC)C(=O)N(C)CC(=O)N(C)[C@H]3CCCCN(C3=O)[C@@H](Cc3ccc(C(F)(F)F)cc3)C(=O)N(C)CC(=O)N[C@@H](CCc3ccc(C(F)(F)F)cc3F)C(=O)N2C1 [PP0885]			C (A compound having a KD ratio of 0.1 or more and less than 3 is denoted as C)	B (a compound having 3 or more and less than 10 is denoted as B)		
	0.039	CCO[C@@H]1C[C@H]2C(=O)NC3(CCC3)C(=O)N(C)[C@@H](C(C)(C)C)C(=O)N(C)[C@H](C(=O)N3CCOCC3)CC(=O)N(C)[C@@H](CC(C)C)C(=O)N[C@@H]([C@@H](C)CC)C(=O)N(C)CC(=O)N(C)[C@H]3CCCCN(C3=O)[C@@H](Cc3ccc(C(F)(F)F)cc3)C(=O)N(C)CC(=O)N[C@@H](CCc3cc(F)c(C(F)(F)F)c(F)c3)C(=O)N2C1 [PP0814]			B (a compound having 3 or more and less than 10 is denoted as B)	B (a compound having 3 or more and less than 10 is denoted as B)		
	0.63	CCO[C@@H]1C[C@H]2C(=O)NC3(CC(C)(C)C3)C(=O)N(C)[C@@H](C(CC)CC)C(=O)N(C)[C@H](C(=O)N3CCCC3)CC(=O)N(C)[C@@H](C)C(=O)N[C@@H]([C@@H](C)CC)C(=O)N(C)CC(=O)N(C)[C@H]3C/C=C\CCN(C3=O)[C@@H](Cc3ccc(C)cc3)C(=O)N(C)CC(=O)N[C@@H](CCc3ccc(C(F)(F)F)c(OC)c3)C(=O)N2C1 [PP2169]			AA (a compound having 20 or more is denoted as AA)	A (a compound having 10 or more and less than 20 is denoted as A)		
12		CCC(CC)[C@@H]1NC(=O)[C@H](CC(C)C)N(C)C(=O)C[C@@H](C(=O)N2CCOCC2)N(C)C(=O)[C@H](C2CCCC2)N(C)C(=O)C2(CCCC2)NC(=O)[C@@H]2CCCN2C(=O)[C@H](CCc2cc(F)c(C(F)(F)F)c(F)c2)NC(=O)CN(C)C(=O)[C@H](Cc2ccc(C(F)(F)F)cc2)N2CCCCC[C@@H](C2=O)N(C)C(=O)CN(C)C1=O [PP0523]					A (a compound having 10 or more and less than 20 is denoted as A)	B (a compound having 3 or more and less than 10 is denoted as B)

The remaining lines, values behind:

SMILES	Kd [1, 4] [nM]	Kd ([1]; SPR, Single Cycle Kinetics) [nM]	NRAS/KRAS (ratio of KD value with respect to GDP-bound NRAS wild-type protein to KD value with respect to KRAS) [2]	HRAS/KRAS (ratio of KD value with respect to GDP-bound HRAS wild-type protein to KD value with respect to KRAS) [3]	NRAS/KRAS (ratio of KD value for NRAS to KD value for KRAS) [2]	HRAS/KRAS (ratio of KD value for HRAS to KD value for KRAS) [3]	NRAS/KRAS (ratio of KD value with respect to NRAS to KD value with respect to KRAS) [2]	HRAS/KRAS (ratio of KD value with respect to HRAS to KD value with respect to KRAS) [3]
CC[C@H](C)[C@@H]1NC(=O)[C@@H]2CCC/C=C/c3ccc(cc3)C[C@@H](C(=O)N(C)CC(=O)N[C@@H](CCc3ccc(Cl)c(Cl)c3)C(=O)N3CCC[C@H]3C(=O)NC3(CC(C)(C)C3)C(=O)N(C)[C@@H](C3CCCC3)C(=O)N(C)[C@H](C(=O)N3CCCC3)CC(=O)N2C)N2CC/C=C\C[C@@H](C2=O)N(C)C(=O)CN(C)C1=O [PP2602]	0.25		A (a compound having 10 or more and less than 20 is denoted as A)	A (a compound having 10 or more and less than 20 is denoted as A)				
CCC[C@H]1C(=O)N[C@@H]([C@@H](C)CC)C(=O)N(C)CC(=O)N(C)[C@H]2C/C=C\CCN(C2=O)[C@@H](Cc2ccc(C(F)(F)F)cc2)C(=O)N(C)CC(=O)N[C@@H](CCc2ccc(C(F)(F)F)c(Cl)c2)C(=O)N2C[C@H](OCC)C[C@H]2C(=O)NC2(CC(C)(C)C2)C(=O)N(C)[C@@H](CC(C)(C)C)C(=O)N(C)[C@H](C(=O)N(C)C)CC(=O)N1C [PP2969]	0.073		AA (a compound having 20 or more is denoted as AA)	A (a compound having 10 or more and less than 20 is denoted as A)				
CCCN1C(=O)CN(C)C(=O)CN(C)C(=O)[C@H]([C@@H](C)CC)NC(=O)[C@H](CC(C)C)N(C)C(=O)C[C@@H](C(=O)N2CCOCC2)N(C)C(=O)[C@H](C2CCCC2)N(C)C(=O)C2(CCCC2)NC(=O)[C@@H]2CCCN2C(=O)[C@H](CCc2cc(F)c(C(F)(F)F)c(F)c2)NC(=O)CN(C)C(=O)[C@@H]1Cc1ccc(C(F)(F)F)cc1 [PP0753] ([NMeL]I[Sar][Sar][NPrPhe(4-CF3)][Sar][hPhe(3,5-F2-4-CF3)]P[Ac5c][NMeGly(cPent)][NMeD]-Morpholide; lactam N-11)	0.14						B (a compound having 3 or more and less than 10 is denoted as B)	C (A compound having a KD ratio of 0.1 or more and less than 3 is denoted as C)
CCCN1C(=O)CN(C)C(=O)CN(C)C(=O)[C@H]([C@@H](C)CC)NC(=O)[C@H](CC(C)C)N(C)C(=O)C[C@@H](C(=O)N(C)C)NC(=O)[C@H](C2CCCC2)N(C)C(=O)C2(CCCC2)NC(=O)[C@@H]2CC(F)(F)CN2C(=O)[C@H](CCc2ccc(C(F)(F)F)c(Cl)c2)NC(=O)CN(C)C(=O)[C@@H]1Cc1ccc(C(F)(F)F)cc1 [PP0357] ([NMeL]I[Sar][Sar][NPrPhe(4-CF3)][Sar][hPhe(3-Cl-4-CF3)][Pro(4,4-F2)][Ac5c][NMeGly(cPent)]D-NMe2; lactam N-11)	0.4				B (a compound having 3 or more and less than 10 is denoted as B)	B (a compound having 3 or more and less than 10 is denoted as B)		
CCO[C@@H]1C[C@H]2C(=O)NC3(CCC3)C(=O)N(C)[C@@H](C3CCCC3)C(=O)N(C)[C@H](C(=O)N3CCOCC3)CC(=O)N(C)[C@@H](CCOC)C(=O)N[C@@H]([C@@H](C)CC)C(=O)N(C)CC(=O)N(C)[C@H]3CCCCN(C3=O)[C@@H](Cc3ccc(C(F)(F)F)cc3)C(=O)N(C)CC(=O)N[C@@H](CCc3cc(F)c(C(F)(F)F)c(F)c3)C(=O)N2C1 [PP0720]	0.036						C (A compound having a KD ratio of 0.1 or more and less than 3 is denoted as C)	B (a compound having 3 or more and less than 10 is denoted as B)
CCCN1C(=O)[C@@H]2CCN2C(=O)CN(C)C(=O)[C@H]([C@@H](C)CC)NC(=O)[C@H](CC(C)C)N(C)C(=O)C[C@@H](C(=O)N2CCOCC2)N(C)C(=O)[C@H](C2CCCC2)N(C)C(=O)[C@](C)(CC)NC(=O)[C@@H]2CCCN2C(=O)[C@H](CCc2cc(F)c(C(F)(F)F)c(F)c2)NC(=O)CN(C)C(=O)[C@@H]1Cc1ccc(C(F)(F)F)cc1 [PP0790] ([NMeL]I[Sar][Aze][NPrPhe(4-CF3)][Sar][hPhe(3,5-F2-4-CF3)]P[Iva][NMeGly(cPent)][NMeD]-Morpholide; lactam N-11)	0.56						C (A compound having a KD ratio of 0.1 or more and less than 3 is denoted as C)	B (a compound having 3 or more and less than 10 is denoted as B)
CCCN1C(=O)CN(C)C(=O)CN(C)C(=O)[C@H]([C@@H](C)CC)NC(=O)[C@H](CC(C)C)N(C)C(=O)C[C@@H](C(=O)N2CCOCC2)N(C)C(=O)[C@H](C2CCCC2)N(C)C(=O)C2(CCCC2)NC(=O)[C@@H]2CCCN2C(=O)[C@H](CCc2ccc(C(F)(F)F)c(Cl)c2)NC(=O)CN(CC)C(=O)[C@@H]1Cc1ccc(C)cc1 [PP0066] ([NMeL]I[Sar][Sar][NPrPhe(4-Me)][NEtG][hPhe(3-Cl-4-CF3)]P[Ac5c][NMeGly(cPent)][NMeD]-Morpholide; lactam N-11)	1.4				B (a compound having 3 or more and less than 10 is denoted as B)	C (A compound having a KD ratio of 0.1 or more and less than 3 is denoted as C)		
CCCO[C@H]1CCN2C(=O)[C@H](CCc3cc(F)c(C(F)(F)F)c(F)c3)NC(=O)CN(C)C(=O)[C@H](Cc3ccc(C(F)(F)F)cc3)N3CCCC[C@@H](C3=O)N(C)C(=O)CN(C)C(=O)[C@H]([C@@H](C)CC)NC(=O)[C@H](CC(C)C)N(C)C(=O)C[C@@H](C(=O)N3CCOCC3)N(C)C(=O)[C@H](C3CCCC3)N(C)C(=O)C3(CCC3)NC(=O)[C@H]12 [PP1077]		0.085			B (a compound having 3 or more and less than 10 is denoted as B)	B (a compound having 3 or more and less than 10 is denoted as B)		
CCCN1C(=O)[C@@H]2CCN2C(=O)CN(C)C(=O)[C@H]([C@@H](C)CC)NC(=O)[C@H](CC(C)C)N(C)C(=O)C[C@@H](C(=O)N(C)C)NC(=O)[C@H](C2CCCC2)N(C)C(=O)C2(CCC2)NC(=O)[C@@H]2C[C@@H](OCC)CN2C(=O)[C@H](CCc2ccc(C(F)(F)F)c(Cl)c2)NC(=O)CN(C)C(=O)[C@@H]1Cc1ccc(C(F)(F)F)cc1 [PP0390] ([NMeL]I[Sar][Aze][NPrPhe(4-CF3)][Sar][hPhe(3-Cl-4-CF3)][Hyp](Et)[Ac4c][NMeGly(cPent)]D-NMe2; lactam N-11)	0.2				C (A compound having a KD ratio of 0.1 or more and less than 3 is denoted as C)	B (a compound having 3 or more and less than 10 is denoted as B)		
